Each block holds one compound with its values, some of them ahead of it.
Tests used:
[1] = biological target: Vascular endothelial growth factor receptor 2 (Homo sapiens, UniProt P35968); assay: Selectivity interaction (NovaScreen assay) EUB0001542aTs KDR
[2] = biological target: T1, Aurora kinase A (Homo sapiens) (UniProt O14965); assay: Selectivity interaction (KinomeScan (DiscoverX)) EUB0000595a STK6; details: at 10 µM
T1 sequence (whole entry): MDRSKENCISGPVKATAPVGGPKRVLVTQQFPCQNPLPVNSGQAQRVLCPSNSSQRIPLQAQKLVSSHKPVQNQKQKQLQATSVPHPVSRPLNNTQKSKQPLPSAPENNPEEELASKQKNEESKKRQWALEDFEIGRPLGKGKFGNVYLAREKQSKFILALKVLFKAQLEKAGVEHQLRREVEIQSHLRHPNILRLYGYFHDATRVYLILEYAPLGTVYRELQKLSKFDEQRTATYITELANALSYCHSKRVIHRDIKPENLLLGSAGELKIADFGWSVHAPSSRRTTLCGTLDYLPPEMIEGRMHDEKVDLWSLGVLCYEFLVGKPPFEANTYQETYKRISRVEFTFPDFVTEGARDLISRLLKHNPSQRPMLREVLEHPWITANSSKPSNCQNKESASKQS

[3] = biological target: T2, Phosphatidylinositol 4,5-bisphosphate 3-kinase catalytic subunit delta isoform (Homo sapiens) (UniProt O00329); assay: Selectivity interaction (ProQinase) EUB0000171b PIK3CD
T2 sequence (whole entry): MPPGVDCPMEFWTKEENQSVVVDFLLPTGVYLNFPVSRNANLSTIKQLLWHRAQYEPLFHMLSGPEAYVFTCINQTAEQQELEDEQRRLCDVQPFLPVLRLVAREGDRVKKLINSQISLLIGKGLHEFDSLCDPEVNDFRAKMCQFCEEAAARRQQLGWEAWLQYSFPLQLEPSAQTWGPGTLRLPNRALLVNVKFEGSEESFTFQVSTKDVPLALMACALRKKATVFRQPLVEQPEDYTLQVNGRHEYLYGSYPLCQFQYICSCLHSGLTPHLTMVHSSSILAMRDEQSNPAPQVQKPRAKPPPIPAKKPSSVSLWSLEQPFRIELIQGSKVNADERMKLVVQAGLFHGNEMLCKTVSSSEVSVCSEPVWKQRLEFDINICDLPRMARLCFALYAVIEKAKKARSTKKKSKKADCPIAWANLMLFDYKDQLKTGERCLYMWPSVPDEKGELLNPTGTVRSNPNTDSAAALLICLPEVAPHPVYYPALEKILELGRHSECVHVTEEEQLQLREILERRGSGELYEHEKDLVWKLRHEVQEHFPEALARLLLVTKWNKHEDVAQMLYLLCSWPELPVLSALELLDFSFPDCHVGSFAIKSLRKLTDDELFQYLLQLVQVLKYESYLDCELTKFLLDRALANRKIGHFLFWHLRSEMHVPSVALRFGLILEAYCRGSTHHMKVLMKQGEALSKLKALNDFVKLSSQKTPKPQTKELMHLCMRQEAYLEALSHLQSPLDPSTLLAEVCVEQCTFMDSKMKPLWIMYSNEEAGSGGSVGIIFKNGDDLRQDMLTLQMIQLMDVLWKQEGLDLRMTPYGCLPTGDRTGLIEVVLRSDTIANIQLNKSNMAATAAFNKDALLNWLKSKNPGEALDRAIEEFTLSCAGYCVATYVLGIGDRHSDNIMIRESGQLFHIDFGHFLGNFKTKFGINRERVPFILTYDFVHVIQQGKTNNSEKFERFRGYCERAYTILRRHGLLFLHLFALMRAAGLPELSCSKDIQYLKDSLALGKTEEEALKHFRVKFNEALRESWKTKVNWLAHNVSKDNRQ

[4] = biological target: T3, MAP/microtubule affinity-regulating kinase 4 (Homo sapiens) (UniProt Q96L34); assay: Selectivity interaction (KinomeScan (DiscoverX)) EUB0000618a MARK4; details: at 10 µM
T3 sequence (whole entry): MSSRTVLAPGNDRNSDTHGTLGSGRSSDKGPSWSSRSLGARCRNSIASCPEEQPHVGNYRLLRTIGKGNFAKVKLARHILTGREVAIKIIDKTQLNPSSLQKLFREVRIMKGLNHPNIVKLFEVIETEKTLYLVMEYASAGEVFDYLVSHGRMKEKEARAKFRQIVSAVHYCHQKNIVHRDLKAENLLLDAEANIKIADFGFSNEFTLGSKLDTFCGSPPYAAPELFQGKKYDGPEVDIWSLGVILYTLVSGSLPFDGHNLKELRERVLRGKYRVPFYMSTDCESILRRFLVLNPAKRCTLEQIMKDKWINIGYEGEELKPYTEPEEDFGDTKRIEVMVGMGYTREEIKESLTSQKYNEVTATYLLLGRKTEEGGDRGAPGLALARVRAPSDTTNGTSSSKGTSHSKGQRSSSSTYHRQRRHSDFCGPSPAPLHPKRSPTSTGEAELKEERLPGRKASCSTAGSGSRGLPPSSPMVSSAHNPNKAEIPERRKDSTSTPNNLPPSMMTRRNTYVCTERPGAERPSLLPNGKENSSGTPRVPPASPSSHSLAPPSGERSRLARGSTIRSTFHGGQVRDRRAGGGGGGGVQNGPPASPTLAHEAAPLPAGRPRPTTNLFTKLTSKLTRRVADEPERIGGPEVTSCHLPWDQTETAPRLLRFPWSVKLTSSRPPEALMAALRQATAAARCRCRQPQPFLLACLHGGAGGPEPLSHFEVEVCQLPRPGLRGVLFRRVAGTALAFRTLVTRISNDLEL

[5] = biological target: T4, Tyrosine-protein kinase Tec (Homo sapiens) (UniProt P42680); assay: Selectivity interaction (KinomeScan (DiscoverX)) EUB0000607a TEC; details: at 10 µM
T4 sequence (whole entry): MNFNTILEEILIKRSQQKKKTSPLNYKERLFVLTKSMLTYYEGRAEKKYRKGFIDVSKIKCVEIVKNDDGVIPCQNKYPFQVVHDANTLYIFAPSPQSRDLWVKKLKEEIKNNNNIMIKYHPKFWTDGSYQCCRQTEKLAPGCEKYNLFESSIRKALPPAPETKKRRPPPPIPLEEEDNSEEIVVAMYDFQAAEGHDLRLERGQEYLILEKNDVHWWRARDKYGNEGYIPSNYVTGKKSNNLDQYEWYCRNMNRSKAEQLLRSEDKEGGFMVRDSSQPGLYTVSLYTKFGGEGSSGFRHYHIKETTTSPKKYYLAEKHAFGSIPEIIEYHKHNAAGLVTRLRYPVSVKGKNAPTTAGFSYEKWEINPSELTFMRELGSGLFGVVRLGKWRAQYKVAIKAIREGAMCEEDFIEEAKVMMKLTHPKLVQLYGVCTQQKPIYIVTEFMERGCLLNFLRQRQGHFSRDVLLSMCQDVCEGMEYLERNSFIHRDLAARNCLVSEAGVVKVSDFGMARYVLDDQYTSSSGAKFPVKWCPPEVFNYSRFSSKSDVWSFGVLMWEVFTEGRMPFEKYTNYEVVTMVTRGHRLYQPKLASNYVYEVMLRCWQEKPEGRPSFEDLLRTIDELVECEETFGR

Sequence of Vascular endothelial growth factor receptor 2 (P35968 whole entry): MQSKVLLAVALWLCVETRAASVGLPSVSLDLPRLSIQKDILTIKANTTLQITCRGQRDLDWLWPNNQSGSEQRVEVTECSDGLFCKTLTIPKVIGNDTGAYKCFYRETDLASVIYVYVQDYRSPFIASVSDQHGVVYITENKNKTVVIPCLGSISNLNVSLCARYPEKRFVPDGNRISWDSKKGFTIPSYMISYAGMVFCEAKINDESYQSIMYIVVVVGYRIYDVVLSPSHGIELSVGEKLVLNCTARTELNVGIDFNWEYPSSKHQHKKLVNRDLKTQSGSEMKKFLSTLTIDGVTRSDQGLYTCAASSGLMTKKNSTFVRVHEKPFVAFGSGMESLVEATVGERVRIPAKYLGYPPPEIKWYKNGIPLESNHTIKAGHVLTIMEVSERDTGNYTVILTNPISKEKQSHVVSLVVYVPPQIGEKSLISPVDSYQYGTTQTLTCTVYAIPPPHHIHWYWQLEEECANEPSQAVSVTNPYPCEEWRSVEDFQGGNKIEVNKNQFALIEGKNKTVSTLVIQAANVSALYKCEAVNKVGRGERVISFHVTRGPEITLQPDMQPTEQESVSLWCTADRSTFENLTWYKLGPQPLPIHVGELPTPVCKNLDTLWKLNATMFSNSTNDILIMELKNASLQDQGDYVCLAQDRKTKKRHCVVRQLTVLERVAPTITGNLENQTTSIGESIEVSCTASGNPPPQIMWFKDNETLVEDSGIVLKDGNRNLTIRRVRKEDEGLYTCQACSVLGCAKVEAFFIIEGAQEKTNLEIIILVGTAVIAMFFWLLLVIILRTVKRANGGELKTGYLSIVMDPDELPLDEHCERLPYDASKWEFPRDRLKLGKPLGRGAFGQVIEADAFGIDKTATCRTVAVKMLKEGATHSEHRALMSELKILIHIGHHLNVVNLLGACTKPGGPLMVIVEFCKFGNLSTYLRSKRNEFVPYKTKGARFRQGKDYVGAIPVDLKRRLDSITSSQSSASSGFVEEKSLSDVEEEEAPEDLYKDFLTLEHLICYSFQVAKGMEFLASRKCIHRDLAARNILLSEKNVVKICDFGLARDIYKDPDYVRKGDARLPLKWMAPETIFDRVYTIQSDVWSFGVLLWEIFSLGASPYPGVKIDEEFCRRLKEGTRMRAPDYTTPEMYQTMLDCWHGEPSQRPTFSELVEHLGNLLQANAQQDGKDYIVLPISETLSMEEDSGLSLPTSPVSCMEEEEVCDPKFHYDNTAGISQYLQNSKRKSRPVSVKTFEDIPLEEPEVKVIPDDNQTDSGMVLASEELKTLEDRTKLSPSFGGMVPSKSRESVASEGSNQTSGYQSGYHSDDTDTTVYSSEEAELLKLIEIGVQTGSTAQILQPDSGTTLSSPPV

IC50 [1]: > 30 µM
Structure (SMILES): Cn1cc(Nc2nccc(N3CC4CCC(C3)N4C(=O)[C@@H]3CC3(F)F)n2)cn1

Structure (SMILES): COCC(=O)NC/C=C/c1ccc2ncnc(Nc3ccc(Oc4ccc(C)nc4)c(C)c3)c2c1 [CP-724714]
% of control [2]: 100%

% of control ([3]; at 1 µM): 119%
% of control ([3]; at 5 µM): 113%
Structure (SMILES): C=CC(=O)Nc1cccc(C(=O)Nc2ccc(Nc3cc(-c4[nH]c(SC)nc4C)ccn3)cc2)c1

Structure (SMILES): O[C@H]1CC[C@H](Nc2ncc3nc(Nc4c(F)cc(F)cc4F)n([C@H]4CCOC4)c3n2)CC1
% of control [4]: 100%

Structure (SMILES): CNC(=O)Nc1ccc(-c2nc(N3CC4CCC(C3)O4)c3cnn(C4CCC5(CC4)OCCO5)c3n2)cc1
% of control [5]: 84%

— ChEMBL document CHEMBL5465560, “Selectivity Literature for EUbOPEN Chemogenomic Library” (2024)
